Some test systems named below: EKVX NSCLC; HOP-62 NSCLC; HOP-92 NSCLC; K-562 leukemia; M14 melanoma; OVCAR-8 ovarian; RPMI-8226 leukemia; SK-OV-3 ovarian; SN12C renal; IGROV1 ovarian.
Experiment in all cases: inhibition of tumour cell growth, NCI panel, 48 h

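Cultured in 96-well plates, cells were exposed to test compound for 48 hours across five concentrations. Abbreviation: GI50, concentration required for 50% inhibition of growth. At the TGI there is no net growth.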

Consider `Cc1ccc2nc(-c3ccc(N(C)C)c(Br)c3)cn2c1`, for which the GI50 in the test on EKVX NSCLC was greater than 100 µM; in the test with HOP-62 NSCLC it was greater than 100 µM; in the test with HOP-92 NSCLC it was 44.4 µM; in the test on K-562 leukemia it was 2.93 µM; in the test on M14 melanoma it was greater than 100 µM; in the test with OVCAR-8 ovarian, 17.4 µM. Also, the GI50 was 3.93 µM in the test with RPMI-8226 leukemia, greater than 100 µM in the test on SK-OV-3 ovarian and greater than 100 µM with SN12C renal. In addition, the TGI in the test on EKVX NSCLC, in the test with HOP-62 NSCLC, in the test with HOP-92 NSCLC, in the test with K-562 leukemia, in the test on M14 melanoma and with OVCAR-8 ovarian was greater than 100 µM throughout. Moreover, the TGI in the test with RPMI-8226 leukemia, in the test with SK-OV-3 ovarian and with SN12C renal was greater than 100 µM each time.
With `CC(=O)OCC(OC(C)=O)C(OC(C)=O)C(OC(C)=O)C(=O)CNn1c(-c2ccccc2Cl)nc2ccccc2c1=O` (configuration not stated), the TGI in the test with EKVX NSCLC, in the test on HOP-62 NSCLC, in the test with K-562 leukemia, with M14 melanoma, with OVCAR-8 ovarian and with RPMI-8226 leukemia was greater than 100 µM in each case. Moreover, the TGI in the test on SK-OV-3 ovarian and with SN12C renal was greater than 100 µM throughout.
Regarding `COC(=O)C(=O)C(C(=O)C(=O)Nc1cccc(C(C)=O)c1)c1nc2ccccc2[nH]c1=O` (configuration not stated), the TGI in the test with EKVX NSCLC, in the test with HOP-92 NSCLC, in the test with IGROV1 ovarian, in the test on K-562 leukemia, in the test with M14 melanoma and in the test with SK-OV-3 ovarian was greater than 100 µM throughout.
Regarding `O=[N+]([O-])c1cnn(C2=CNc3ccccc3N=C2)c1`, the TGI in the test on EKVX NSCLC, in the test with HOP-62 NSCLC, in the test with HOP-92 NSCLC, in the test with OVCAR-8 ovarian, in the test with SK-OV-3 ovarian and with SN12C renal was greater than 100 µM each time.
For the compound `COC(=O)c1ccccc1NC(=O)C(=O)NNC(=O)c1ccncc1`, the TGI in the test on EKVX NSCLC, in the test with HOP-62 NSCLC, with HOP-92 NSCLC, with IGROV1 ovarian, in the test with M14 melanoma and in the test on OVCAR-8 ovarian was greater than 100 µM in each case. The TGI in the test with SK-OV-3 ovarian and with SN12C renal was greater than 100 µM in each case.
In the case of `CC[O-].CC[O-].O=S(=O)([O-])c1ccc([O-])c2ncccc12.O=S(=O)([O-])c1ccc([O-])c2ncccc12.[Ti+4]`, the GI50 in the test on EKVX NSCLC was greater than 100 µM; in the test with HOP-62 NSCLC, 44 µM; in the test on IGROV1 ovarian, greater than 100 µM; in the test on K-562 leukemia, greater than 100 µM; in the test with M14 melanoma, 63.8 µM; with OVCAR-8 ovarian it was 74.5 µM. The GI50 in the test on RPMI-8226 leukemia, in the test on SK-OV-3 ovarian and in the test on SN12C renal was greater than 100 µM each time. Moreover, the TGI in the test with EKVX NSCLC, with HOP-62 NSCLC, with IGROV1 ovarian, with K-562 leukemia, with M14 melanoma and in the test on OVCAR-8 ovarian was greater than 100 µM each time. Besides, the TGI in the test with RPMI-8226 leukemia, in the test with SK-OV-3 ovarian and in the test on SN12C renal was greater than 100 µM in each case.
In the case of `COc1cc2c(=O)n(CCN)c3c4cc5c(cc4ccc3c2cc1OC)OCO5`, the GI50 in the test on EKVX NSCLC was 1.47 µM; with HOP-62 NSCLC it was 0.444 µM; in the test with HOP-92 NSCLC, 3.31 µM; with IGROV1 ovarian it was 0.467 µM; in the test on M14 melanoma, 0.425 µM; in the test with OVCAR-8 ovarian it was 0.988 µM. Moreover, the GI50 with RPMI-8226 leukemia is 0.356 µM; with SK-OV-3 ovarian, 1.24 µM; with SN12C renal it was 0.723 µM. In addition, the TGI in the test on EKVX NSCLC is 3.51 µM; in the test on HOP-62 NSCLC it was 2.27 µM; with HOP-92 NSCLC it was 18 µM; with IGROV1 ovarian, 2.07 µM; in the test on M14 melanoma, 1.89 µM; in the test with OVCAR-8 ovarian, 3.91 µM. For the same compound, the TGI with RPMI-8226 leukemia turned out to be 2.37 µM; in the test with SK-OV-3 ovarian, 12 µM; in the test with SN12C renal it was 2.32 µM.
For `CC(=O)NC(CCCCNC(=O)NCCCl)C(=O)NCc1ccccc1` (configuration not stated), the TGI in the test on EKVX NSCLC, in the test on HOP-62 NSCLC, with HOP-92 NSCLC, in the test with K-562 leukemia, in the test on M14 melanoma and in the test with OVCAR-8 ovarian was greater than 100 µM in each case. Moreover, the TGI with RPMI-8226 leukemia and in the test on SN12C renal was greater than 100 µM throughout.
For the compound `C/C(=N\N(c1ccccc1)c1ccccc1)c1c(O)cc(C)oc1=O`, the TGI with EKVX NSCLC, with HOP-62 NSCLC, in the test with HOP-92 NSCLC, in the test with K-562 leukemia, in the test with M14 melanoma and with OVCAR-8 ovarian was greater than 100 µM each time. In addition, the TGI with SK-OV-3 ovarian and in the test on SN12C renal was greater than 100 µM throughout.
With `NC(N)=NCCC1OC(=O)C2=C1c1c(O)ccc3nccc(c13)O2` (configuration not stated), the GI50 in the test with EKVX NSCLC, in the test with HOP-62 NSCLC, in the test with IGROV1 ovarian, in the test on K-562 leukemia, in the test with M14 melanoma and with OVCAR-8 ovarian was greater than 100 µM in each case. The GI50 in the test on RPMI-8226 leukemia, with SK-OV-3 ovarian and in the test with SN12C renal was greater than 100 µM each time. Besides, the TGI with EKVX NSCLC, with HOP-62 NSCLC, with IGROV1 ovarian, in the test on K-562 leukemia, in the test on M14 melanoma and in the test on OVCAR-8 ovarian was greater than 100 µM throughout. Also, the TGI in the test on RPMI-8226 leukemia, with SK-OV-3 ovarian and with SN12C renal was greater than 100 µM throughout.
With `CCOC(=O)C1(C#N)C(c2ccccc2)CC(O)(c2ccc(Cl)cc2)C(C(=O)c2ccc(Cl)cc2)C1c1ccccc1` (configuration not stated), the TGI with EKVX NSCLC, with HOP-62 NSCLC, with IGROV1 ovarian, in the test on M14 melanoma, with OVCAR-8 ovarian and in the test with RPMI-8226 leukemia was greater than 100 µM throughout. Further, the TGI with SK-OV-3 ovarian and in the test on SN12C renal was greater than 100 µM in each case.
As for `O=C(O)C1CCCCC1C(=O)O.[NH-]C1CCC1.[NH2-].[Pt+2]` (configuration not stated), the GI50 in the test on EKVX NSCLC was 26.5 µM; in the test on HOP-62 NSCLC it was 77 µM; in the test on HOP-92 NSCLC, 19.4 µM; with IGROV1 ovarian it was 57.5 µM; in the test on K-562 leukemia, 29.6 µM; in the test with M14 melanoma it was 12.6 µM. Moreover, the GI50 with OVCAR-8 ovarian is greater than 100 µM; in the test on SK-OV-3 ovarian, 48.7 µM; with SN12C renal, 11.8 µM. Also, the TGI is 84.8 µM in the test with EKVX NSCLC; greater than 100 µM in the test with HOP-62 NSCLC; 44 µM with HOP-92 NSCLC; greater than 100 µM in the test with IGROV1 ovarian; greater than 100 µM with K-562 leukemia; 27.3 µM in the test on M14 melanoma. In addition, the TGI was greater than 100 µM in the test with OVCAR-8 ovarian, greater than 100 µM in the test on SK-OV-3 ovarian and 26.7 µM in the test on SN12C renal.

The values are drawn from PubChem BioAssay (NCI).
